Measured values as given in US10478437B2, “Combination therapy to enhance the anticancer efficacy of platinum drugs” (University of Pittsburgh-of the Commonwealth System of …, priority 2014, dated 2019).

Assays:
Assay type in all cases: cell-based, human
[1] = tested on: cisplatin-resistant ovarian cancer cell line A2780cis; assay: Caspase-3/7 activity assay (apoptotic cell death), compound alone or with cisplatin; settings: compound 20 μM, 20 h
Method in brief: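 Caspase-3/7 activity in A2780cis cells treated with compound alone or with cisplatin, luminescent Caspase-Glo 3/7 read-out. Apoptotic morphology is checked microscopically just before measurement.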

[2] = tested on: cisplatin-resistant ovarian cancer cell line A2780cis; assay: CellTiter-Blue cell viability assay, compound alone or with cisplatin or carboplatin, 24 h; settings: compound 20 μM; 24 h; untreated cells = 100%
Experimental: Data were expressed as mean±standard deviation. A Student's t test was used for the comparisons between the treatment with the combination of analogs with cisplatin and with analogs alone. P<0.05 was considered statistically significant. Combination index was calculated using CompuSyn software. A value of 0.3-0.7 for the combination index indicates synergism, 0.1-0.3 indicates strong synergism, and <0.1 indicates very strong synergism (Chou, 2006).
To further validate the activity of the identified 11 active compounds (see FIG. 3), a CellTiter-Blue cell viability assay was performed with increasing concentrations (10 μM, 20 μM and 50 μM) of the disclosed compounds (see FIG. 4 and Table 5). Cisplatin resistant ovarian cancer cells (A2780cis) were treated with a disclosed compound alone, cisplatin alone or a combination of a compound with cisplatin for 24 h to determine the effects of the compounds on cell viability.
Analysis of the effect of the disclosed compounds with another platinum-containing compound, carboplatin, was performed. A2780cis cells were treated with carboplatin alone or with the combination of carboplatin and the disclosed compounds at indicated concentrations for 24 h followed by the analysis of cell viability.

A2780cis cells [3] = assay: Short-term (3 h) exposure, cell survival by CellTiter-Blue after 48 h in compound free media; settings: cisplatin alone, viability after two days, in words
Experimental: FIG. 5. Short-term exposure of A2780cis cells to the combination of cisplatin and compound 1-6 dramatically reduces cell survival. A2780cis cells were treated with increasing doses of cisplatin alone or the combination of cisplatin with compound 1-6 (20 μM) for 3 h. The compounds were then washed out. Cell survival was determined after 48 h incubation of cells in compound free media by CellTiter-Blue assay.
Further analysis was performed with compound 1-6. […] This synergism for the combination of cisplatin and 1-6 was further confirmed using a fresh sample of high chemical purity (98%). This synergistic effect was also observed using the CellTiter-Blue cell viability assay (FIG. 5) under an alternative exposure strategy that mimics in viva drug administration to test the combination effect. Considering the clearance of cisplatin over the time and the duration of exposure of tumor cells to the effective doses of the drugs in vivo (Los et al., 1989), a short-term exposure of cells to the combination of 20 μM of 1-6 with various doses of cisplatin was tested, followed by cell viability assay after two days.

A2780cis cells [4] = assay: Western blot of caspase/PARP cleavage, Noxa induction, RPA32 and H2AX phosphorylation; settings: cisplatin 20 μM alone, FIG. 8A
Experimental: (§1) Whole cell lysate was prepared by lysing cells in cell lysis buffer (Cell signaling technology) containing complete protease inhibitor (Roche). Cell lysates were then cleared at 15,000 rpm for 15 min at 4° C. The protein content was quantified using a Bio-Rad Protein Assay kit (Bio-Rad Laboratories, Hercules, Calif.). The equal amount of protein was separated on Tris-glycine gels (Invitrogen). The separated proteins were blotted onto a polyvinylidene difluoride membrane and blocked overnight at 4° C. in phosphate-buffered saline containing 0.1% Tween 20 and 10% nonfat dry milk (blocking buffer). Membranes were incubated with primary antibodies in blocking buffer overnight at 4° C. Primary antibodies used were: β-actin from Sigma; Bax, Bak, Caspase-9 and cleaved Caspase-3 from Cell Signaling Technology; phospho-Histone H2AX (Ser 139) and Noxa from Millipore. Membranes were then washed and incubated in peroxidase conjugated anti-rabbit IgG (Sigma) or anti-mouse IgG (Sigma) secondary antibody for 1 h at room temperature. Membranes were developed using SuperSignal West Femto Maximum Sensitivity Substrate (Thermo Fisher Scientific).
A2780cis cells were treated with cisplatin alone, compounds alone or in combination with cisplatin at indicated concentrations for 20 h to analyze apoptotic cell death in response to treatment. […] Expression and cleavage of several major caspases (Caspase-8, Caspase-9 and Caspase-3), as well as poly(ADP-ribose) polymerase (PARP) and NOXA. A2780cis cells were treated with cisplatin (20 μM) alone, compounds (20 μM) alone or in combination with cisplatin for 20 h.
To determine the effects of the compounds on DNA damage and mitochondrial dysfunction, A2780cis cells were treated with cisplatin (20 μM) alone or the combination of cisplatin with 20 μM of compound 1-6. Replication protein A (RPA) is a single strand-specific DNA-binding protein, consisting of three subunits, RPA70, RPA32, and RPA14. RPA32 is phosphorylated in response to DNA replication stress. Western blot analysis was performed to evaluate the phosphorylation of RPA32 and histone H2AX, the induction of Noxa expression and cleavage of caspase-3. […] A2780cis cells were treated with cisplatin (50 μM) alone, 1-6 (50 μM) alone or the combination of cisplatin and compound 1-6 for 4 h. The oxygen consumption rate (OCR) was measured by a Seahorse extracellular flux analyzer.

[5] = tested on: PEO4, SKOV3, H1299, MDA-MB-231, Ca133 cells; assay: Western blot of PARP and Caspase-3 cleavage in other cisplatin-resistant cancer cells; settings: 20 μM alone, 20 h, FIG. 9; in words
Experimental: FIG. 9. The combination of cisplatin and compound 1-6 triggers extensive apoptosis in various types of cisplatin- and multidrug-resistant tumor cells. Cisplatin-resistant cancer cells PEO4 (ovarian), SKOV3 (ovarian), H1299 (lung), MDA-MB-231 (breast), Ca133 (head & neck) were treated with DMSO (untreated), cisplatin (20 μM) alone, compound 1-6 (20 μM) alone, or the combination for 20 h. Cleavage of PARP and Caspase-3 were determined by western blot.
as §1
To evaluate whether the synergistic effects of the disclosed compounds and cisplatin could be extended to other types of cancer cells, breast cancer cells (MDA-MB-231), non-small cell lung carcinoma cells (H-1299), ovarian cancer cells (PEO4 and SKOV3) and head and neck cancer cells (Ca133) were treated with various combinations of cisplatin and compound 1-6 and analyzed for Caspase-3.

Compound: N.N.[Cl][Pt][Cl] [cisplatin, reference compound]
- caspase-3/7 activity (Lum), compound alone ([1]; Table 1, mean ± S.D. of triplicates): 30 ± 1 Lum
- caspase-3/7 activity (Lum), compound alone ([1]; Table 2): 30 ± 1 Lum
- caspase-3/7 activity (Lum), compound alone ([1]; Table 3): 35 ± 4 Lum
- caspase-3/7 activity (Lum), compound alone ([1]; Table 4): 35 ± 4 Lum
- caspase-3/7 activity (Lum) with compound alone ([1]; Table 6, untreated cells 9 ± 1): 28 ± 4 Lum
- survival (%) of cells with compound alone [2]: 89.3 ± 0.6%
- effect of 3 hr exposure to cisplatin alone on cell viability (A2780cis cells [3]): slight effect on cell viability
- time of increase in the phosphorylation of RPA32 post treatment, cisplatin alone (A2780cis cells [4]): > 12 h
- cell death after single compound exposure [5]: minimal effect in inducing cell death
